From ChEMBL document CHEMBL1201862, “PubChem BioAssay data set” (2004) come the findings set out here.

The nature of test [1]: fluconazole-exposed Candida albicans growth modulators – fluorescence, retest, confirmation (AID 2467). It is filed as functional, cell-based.
The subject of a further test is INS1. Nature of the test: INS-1E survival protection against cytokine death – cell-based, luminescence, retest, dose response (AID 449756).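 Further: cell death triggered by IL-1 beta plus TNF-alpha plus IFN-gamma mixture; protective hits raise ATP signal compared with cytokine alone wells.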 In kind it is functional. Conditions: Rattus norvegicus.
Test [2] is described as follows: NIH-3T3 fibroblast cytotoxicity, dose response, cytotoxicity control, cell-based, fluorescence, Alamar Blue, secondary assay (AID 2327).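 Further: NIH-3T3 mouse fibroblasts cultured with fluconazole at 8 µg/mL.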 In kind it is functional. On the technique in general: Resazurin is reduced to fluorescent resorufin, in cell work by metabolically active cells.
The target of the next test is Cytochrome P450 2C19 (Homo sapiens, UniProt P33261). Nature of the test: Cytochrome panel assay with activity outcomes. Panel member name: p450-cyp2c19 Compounds with AC50 equal or less than 10 uM are considered active. It is filed as functional. Conditions: read-out: AC50.
The next test concerns the target Cytochrome P450 3A4 (Homo sapiens, UniProt P08684).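 Further: CYP3A4 tested as one member of a cytochrome P450 panel screen.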
In the next test the test system is H9c2. Nature of the test: cells. In kind it is functional, cell-based. Conditions: Rattus norvegicus, H9c2, Myocardium.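 Further: confirmatory concentration-response retest of ultra-high-throughput screening hits for modulation of myocardial damage; cell death induced by hydrogen peroxide oxidative stress; compound pretreatment for 60 min then peroxide exposure for 2 h; potency is for protecting the cells against peroxide damage rather than for killing them.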
The nature of test [3]: viability of uninfected HEp-2 cells – cell-based, HTS, cytotoxicity control for RSV inhibitor project, dose response (AID 2410). In kind it is functional. Conditions: human respiratory syncytial virus.
For test [4], the target named is FAD-linked sulfhydryl oxidase ALR (Homo sapiens, UniProt P55789). Nature of the test: ALR-catalysed DTT oxidation blockers – biochemical, H2O2 detection, luminescence, cherry-pick, dose response (AID 493248).
For the next test, the target named is Cytochrome P450 2C9 (Homo sapiens, UniProt P11712).
The target in the next test is T1, Cytochrome P450 1A2 (Homo sapiens, UniProt P05177).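 Further: PubChem cytochrome P450 panel assay, CYP1A2 panel member.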
T1 sequence (P05177 whole entry): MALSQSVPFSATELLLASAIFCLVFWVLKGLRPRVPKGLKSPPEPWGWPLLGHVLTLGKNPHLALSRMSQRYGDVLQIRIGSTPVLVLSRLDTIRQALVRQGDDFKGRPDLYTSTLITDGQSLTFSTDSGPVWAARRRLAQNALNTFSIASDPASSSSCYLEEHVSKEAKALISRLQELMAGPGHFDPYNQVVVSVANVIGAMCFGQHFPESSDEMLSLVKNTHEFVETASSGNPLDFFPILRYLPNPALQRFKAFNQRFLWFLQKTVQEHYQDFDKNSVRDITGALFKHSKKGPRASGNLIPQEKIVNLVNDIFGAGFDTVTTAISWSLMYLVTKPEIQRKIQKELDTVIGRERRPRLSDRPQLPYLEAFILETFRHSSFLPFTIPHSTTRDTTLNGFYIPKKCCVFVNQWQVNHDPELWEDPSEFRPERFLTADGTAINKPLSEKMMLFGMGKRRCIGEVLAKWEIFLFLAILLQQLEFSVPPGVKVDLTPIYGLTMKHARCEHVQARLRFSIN

A further test has as its target Cytochrome P450 2D6 (Homo sapiens, UniProt P10635).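 Further: CYP2D6 member of a cytochrome P450 panel assay.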
Test [5] is described as follows: NIH3T3 cell viability loss – ATP luminescence, mouse fibroblasts, counter-screen, dose response (AID 2010).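 Further: cells exposed to compound for about 90 hours before reading.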 In kind it is functional, cell-based. A general note: A counterscreen serves to expose hits that act by an unwanted route or on another target.
Test [6] is described as follows: Trypanosoma cruzi growth suppression in host cells – NIH3T3 host cells, beta-gal luminescence, confirmation (AID 2044).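 Further: intracellular parasites grown in NIH/3T3 mouse fibroblasts as host cells; luminescent beta-galactosidase reporter signal from transgenic T. cruzi replicating inside host cells; inhibitors lower the luminescence signal.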 In kind it is functional, cell-based.
The target of test [7] is T2, Rac GTPase-activating protein 1 (Homo sapiens, UniProt Q9H0H5).
T2 sequence (Q9H0H5 whole entry): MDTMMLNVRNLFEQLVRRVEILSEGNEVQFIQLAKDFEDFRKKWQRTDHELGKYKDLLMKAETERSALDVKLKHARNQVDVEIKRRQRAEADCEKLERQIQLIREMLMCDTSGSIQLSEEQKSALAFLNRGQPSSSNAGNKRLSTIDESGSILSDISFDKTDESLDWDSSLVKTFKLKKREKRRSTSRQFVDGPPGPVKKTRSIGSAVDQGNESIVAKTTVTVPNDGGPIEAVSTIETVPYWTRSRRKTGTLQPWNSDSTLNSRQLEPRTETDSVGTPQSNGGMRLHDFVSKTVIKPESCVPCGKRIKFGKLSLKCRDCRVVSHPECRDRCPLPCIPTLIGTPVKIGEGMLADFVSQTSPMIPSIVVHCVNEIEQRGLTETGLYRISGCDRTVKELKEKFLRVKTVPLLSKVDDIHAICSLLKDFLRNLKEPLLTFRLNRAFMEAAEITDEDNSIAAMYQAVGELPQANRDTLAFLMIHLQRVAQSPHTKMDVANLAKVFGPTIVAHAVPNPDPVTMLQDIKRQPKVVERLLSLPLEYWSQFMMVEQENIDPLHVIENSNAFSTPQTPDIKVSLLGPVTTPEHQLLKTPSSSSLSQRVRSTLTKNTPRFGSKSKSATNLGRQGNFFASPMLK
Nature of the test: blockers of MgcRacGAP-driven Rac1 GTP hydrolysis – biochemical, ADP Hunter fluorescence, primary and confirmatory, confirmation (AID 624330). It is filed as functional.

A short description of test [8]: P. falciparum Dd2 growth inhibitors, dose response, SYBR Green, cherry-picked samples (AID 1159567). In kind it is functional, cell-based.

Active and inactive are the calls of the source.

Chain of Cytochrome P450 3A4 (P08684 whole entry): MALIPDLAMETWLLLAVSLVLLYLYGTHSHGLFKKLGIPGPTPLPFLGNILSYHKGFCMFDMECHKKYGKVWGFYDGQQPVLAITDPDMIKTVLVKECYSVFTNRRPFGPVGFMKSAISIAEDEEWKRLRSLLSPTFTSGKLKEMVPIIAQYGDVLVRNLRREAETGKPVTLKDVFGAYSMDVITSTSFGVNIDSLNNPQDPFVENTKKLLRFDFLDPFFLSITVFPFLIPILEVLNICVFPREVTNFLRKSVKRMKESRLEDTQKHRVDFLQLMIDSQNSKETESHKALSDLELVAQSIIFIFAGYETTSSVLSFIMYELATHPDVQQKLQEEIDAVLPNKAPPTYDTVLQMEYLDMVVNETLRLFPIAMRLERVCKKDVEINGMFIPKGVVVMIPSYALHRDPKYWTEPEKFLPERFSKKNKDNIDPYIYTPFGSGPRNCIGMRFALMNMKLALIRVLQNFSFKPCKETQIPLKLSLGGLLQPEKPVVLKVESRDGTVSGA
Chain of FAD-linked sulfhydryl oxidase ALR (P55789 whole entry): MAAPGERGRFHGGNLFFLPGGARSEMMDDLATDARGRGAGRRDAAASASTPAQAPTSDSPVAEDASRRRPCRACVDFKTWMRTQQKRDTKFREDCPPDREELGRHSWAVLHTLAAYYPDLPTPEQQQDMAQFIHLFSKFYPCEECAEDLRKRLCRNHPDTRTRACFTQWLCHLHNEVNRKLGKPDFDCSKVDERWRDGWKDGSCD
Chain of Cytochrome P450 2C19 (P33261 whole entry): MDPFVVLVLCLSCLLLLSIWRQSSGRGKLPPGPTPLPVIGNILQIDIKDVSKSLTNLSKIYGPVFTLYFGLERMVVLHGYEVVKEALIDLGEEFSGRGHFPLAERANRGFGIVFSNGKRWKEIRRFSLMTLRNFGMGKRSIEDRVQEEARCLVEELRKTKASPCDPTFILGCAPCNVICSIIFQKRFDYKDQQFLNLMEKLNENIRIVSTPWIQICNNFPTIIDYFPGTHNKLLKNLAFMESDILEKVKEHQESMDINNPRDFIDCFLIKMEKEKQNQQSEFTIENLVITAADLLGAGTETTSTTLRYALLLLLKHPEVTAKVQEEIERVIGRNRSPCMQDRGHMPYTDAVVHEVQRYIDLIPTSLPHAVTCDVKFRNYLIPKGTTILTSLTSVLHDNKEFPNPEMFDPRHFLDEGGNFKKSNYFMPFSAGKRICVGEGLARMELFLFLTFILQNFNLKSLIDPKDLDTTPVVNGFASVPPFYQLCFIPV
Chain of Cytochrome P450 2C9 (P11712 whole entry): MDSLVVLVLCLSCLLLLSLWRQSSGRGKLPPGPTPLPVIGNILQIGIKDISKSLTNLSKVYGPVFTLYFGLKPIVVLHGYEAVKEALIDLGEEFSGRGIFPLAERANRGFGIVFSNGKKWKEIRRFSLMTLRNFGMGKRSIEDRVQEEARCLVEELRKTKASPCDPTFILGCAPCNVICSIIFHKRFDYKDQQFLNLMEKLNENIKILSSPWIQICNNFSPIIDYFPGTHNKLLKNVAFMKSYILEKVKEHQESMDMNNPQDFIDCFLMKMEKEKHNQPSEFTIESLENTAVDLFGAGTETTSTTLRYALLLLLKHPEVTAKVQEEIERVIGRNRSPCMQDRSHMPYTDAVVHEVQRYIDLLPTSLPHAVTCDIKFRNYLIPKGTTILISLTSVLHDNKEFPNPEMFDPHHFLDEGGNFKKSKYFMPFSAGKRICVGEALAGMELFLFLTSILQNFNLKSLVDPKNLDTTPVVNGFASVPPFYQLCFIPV
Chain of Cytochrome P450 2D6 (P10635 whole entry): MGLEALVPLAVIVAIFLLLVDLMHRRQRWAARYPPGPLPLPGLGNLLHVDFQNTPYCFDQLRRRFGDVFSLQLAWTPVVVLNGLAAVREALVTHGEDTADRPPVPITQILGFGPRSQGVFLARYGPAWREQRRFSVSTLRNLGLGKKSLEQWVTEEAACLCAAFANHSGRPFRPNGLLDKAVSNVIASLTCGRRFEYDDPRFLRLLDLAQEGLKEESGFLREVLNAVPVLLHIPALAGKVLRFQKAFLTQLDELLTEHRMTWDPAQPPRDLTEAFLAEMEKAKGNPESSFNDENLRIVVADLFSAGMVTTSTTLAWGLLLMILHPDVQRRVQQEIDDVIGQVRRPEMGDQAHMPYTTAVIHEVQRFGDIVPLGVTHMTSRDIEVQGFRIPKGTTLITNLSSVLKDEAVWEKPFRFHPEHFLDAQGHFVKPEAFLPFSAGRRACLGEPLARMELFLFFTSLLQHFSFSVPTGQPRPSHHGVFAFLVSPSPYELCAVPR

Broadly, the EC50 is the concentration needed to bring the measured effect to its halfway point. By AC50 is commonly meant the midpoint of the concentration-response curve, whichever way the signal moves. As for `CN1/C(=C\C(=O)C[n+]2ccc(C(=O)c3ccccc3)cc2)C(C)(C)c2ccccc21`, the figures for the EC50 in test [1] and in test [2] were 3.12 µM (active) and > 150 µM (inactive), respectively. In addition, in the test with INS1, the concentration at half-maximal activity (AC50) was 2.42 µM (active).

Turning to `COc1ccccc1Nc1nc(-c2sc(NC(=O)c3ccccc3)nc2C)cs1`, the half-maximal activity concentration (AC50) on Cytochrome P450 2C19 is 3.16 µM (inconclusive); on Cytochrome P450 3A4, 15.8 µM (inconclusive).

Usually IC50 stands for the concentration at which inhibition is half-maximal. As for `Cc1cc(Nc2ccccc2C(=O)O)nc2nc3ccccc3c(=O)n12`, the concentration for half-maximal inhibition (IC50) in the test on H9c2 was 14.2 µM (active).

What is called CC50 is the concentration at which the toxic effect on the cells reaches its halfway point. On to `Cc1cccc(C)c1NC(=O)c1c(C)nn(-c2ccccc2)c1Cl`, for which the 50% cytotoxic concentration (CC50) in [3] was 42.5 µM (active).

As for `CN(C(=O)CSc1nnc(-c2ccco2)o1)C1CCCCC1`, the EC50 in test [1] was 5.16 µM (active); in test [2] it was > 160 µM (inactive).

As for `Cc1cc(Nc2ccccc2)n(-c2ccc(C(=O)O)cc2)n1`, the AC50 in test [4] is 1.41 µM (active).

Turning to `Cc1cc(-n2c(SCC(=O)Nc3ccc(F)c(F)c3)nc3nnc(C)c-3c2N)ccc1Cl`, the AC50 with INS1 is 5.57 µM (active).

Regarding `Cc1ccc(C(=O)OCC(=O)Nc2sccc2C(N)=O)cc1NC(=O)c1ccco1`, in the test with H9c2, the IC50 is > 79 µM (inactive).

As to `COC(=O)[C@H](Cc1ccccc1)NC(=O)N1CCN(c2ccc(F)cc2)CC1`, the AC50 in test [4] was > 100 µM (inactive).

On to `CCn1c(SCC(=O)Nc2cccc(C)c2)nc2ccccc2c1=O`, for which the half-maximal cytotoxic concentration (CC50) in test [3] was > 50 µM (active).

In the case of `O=C(Nc1ccc(C(=O)N2CCCc3ccccc32)cc1)c1cccs1`, the CC50 in test [3] is 35.4 µM (active).

In the case of `COc1ccc(N(C)S(=O)(=O)c2cccc(C(=O)Nc3nc(C)cs3)c2)cc1`, in test [4], the AC50 is 1.2 µM (active).

For the compound `Nc1nc(Cc2ccccc2)nc(Cc2ccccc2)c1-c1ccccc1`, the AC50 was 3.16 µM (inconclusive) at Cytochrome P450 2C9; 6.31 µM (inconclusive) on Cytochrome P450 2C19; 3.16 µM (inconclusive) on Cytochrome P450 3A4; 1 µM (inconclusive) on Cytochrome P450 1A2; 3.16 µM (inconclusive) at Cytochrome P450 2D6.

Turning to `COC(=O)c1cc(C(=O)OCC(=O)N2c3ccccc3NC(=O)C2(C)C)cc([N+](=O)[O-])c1`, the half-inhibitory concentration (IC50) with H9c2 was 10.8 µM (active).

For `O=C1N=C(NO)S/C1=C\c1ccccc1-n1cccn1`, the half-maximal activity concentration (AC50) in test [4] was 4.82 µM (active).

`COc1ccccc1NC(=O)c1c(NC(=O)CCC(=O)O)sc2c1CCCCC2`: in test [4], the concentration at half-maximal activity (AC50) is < 0.005 µM (active).

For the compound `CCOC(=O)c1cccc(NC(=O)CSc2nc3ccccc3c(=O)n2CCOC)c1`, the IC50 in the test with H9c2 was > 79 µM (inactive).

For the compound `CCCCC(NC(=O)Cc1c(C)c2cc3c(C)c(C)oc3c(C)c2oc1=O)C(=O)O` (centres undefined), in test [4], the AC50 is > 100 µM (inactive).

As for `CC[C@H](C)[C@@H](C(=O)NCCCCCCCCCCC(=O)N1CCN(C(=O)OC(C)(C)C)CC1)n1cc(CCCCCNC(=O)OC(C)(C)C)nn1`, in the test on INS1, the concentration at half-maximal activity (AC50) was 4.08 µM (active).

In the case of `COc1cccc(C(=O)Nc2c(C(N)=O)oc3ccccc23)c1`, the IC50 in the test with H9c2 is > 79 µM (inactive).

Take `Cc1onc(-c2ccccc2)c1C(=O)OCC(=O)Nc1ccc(C#N)cc1`: in test [3], the half-maximal cytotoxic concentration (CC50) was 8 µM (active).

As for `Cc1cc(SCC(=O)Nc2cccc(S(=O)(=O)NC3=NCCCCC3)c2)nc2ccccc12`, the 50% cytotoxic concentration (CC50) in test [3] was 40.6 µM (active).

Consider `CC(=O)C1=C(C)NC(SCC(=O)c2cc(Cl)ccc2Cl)=C(C#N)C1c1ccco1` (centres undefined), for which the CC50 in [3] is 14.2 µM (active).

Regarding `N#Cc1ccc(NC(=O)CN2C(=O)NC3(CCCCCCC3)C2=O)cc1Cl`, the CC50 in test [3] was 30.3 µM (active).

Regarding `O=S(=O)(c1ccc(F)cc1)N1CCC(c2nc(O)c3nnn(Cc4ccc5c(c4)OCCO5)c3n2)CC1`, the CC50 in [3] is 19.6 µM (active).

Consider `CCc1nn(CCCC(=O)NCc2ccc(C)cc2)c(=O)c2cc3occc3n12`, for which the concentration for a half-maximal effect (EC50) in test [1] was > 38 µM (not active); in [2], > 160 µM (inconclusive).

In the case of `O=C(Nc1cccs1)NC1CCCC1`, the AC50 in test [4] is 1.83 µM (active).

In the case of `O=C(CCCN1C(=O)c2cccc3cccc(c23)C1=O)N1CCN(c2ccc(F)cc2)CC1`, the half-maximal cytotoxic concentration (CC50) in [3] is 46.2 µM (active).

Take `COc1cccc(-c2cc3nc(-c4ccccc4)cc(N4CCC5(CC4)OCCO5)n3n2)c1`: the AC50 on Cytochrome P450 2C19 is 2 µM (inconclusive); on Cytochrome P450 3A4, 20 µM (inconclusive). Also, the concentration giving a half-maximal response (EC50) in test [5] was > 30 µM (not active); in test [6] it was 1.82 µM (active).

In the case of `CCOc1ccc(S(=O)(=O)N(C)CCO)cc1-c1nc(O)c2c(n1)c(C(C)(C)C)nn2C`, the IC50 in the test with H9c2 was > 79 µM (inactive).

In the case of `CCN(CC)c1ccc(NC(=O)C2=CCN(S(=O)(=O)c3ccc(F)cc3)CC2)c(C)c1`, in [4], the AC50 was 5.05 µM (active).

As for `O=C(N(c1ccccc1)c1ccccc1)N(c1ccccc1)c1ccccc1`, in test [3], the half-maximal cytotoxic concentration (CC50) was 17 µM (active).

On to `Cc1ccc2[nH]cc(CCNC(=O)c3cccs3)c2c1`, for which, in test [4], the concentration at half-maximal activity (AC50) was 26.2 µM (active).

Regarding `O=C(COc1cccc2c1CCNC2=O)Nc1ccc(Cl)cc1`, the IC50 in the test on H9c2 is 11.6 µM (active).

For `FC(F)(F)c1nnc2ccc(N3CCCC3)nn12`, the IC50 in the test on H9c2 was 39.7 µM (inactive).

As to `N=C(NNS(=O)(=O)c1ccccc1)c1ccccn1`, the IC50 in the test on H9c2 was 23.5 µM (active).

For the compound `COc1ccc(Cl)cc1NC(=O)CN(C)C(=O)Cc1nnc(O)c2ccccc12`, the IC50 in the test on H9c2 was > 79 µM (inactive).

In the case of `Oc1c(Br)cc(Br)cc1/C=N/c1ccc2c(c1)OCCO2`, the half-inhibitory concentration (IC50) in the test on H9c2 was 17.6 µM (active); in test [7] it was 119 µM (active).

Turning to `COc1ccc(/N=C/c2cc(Cl)ccc2O)cc1Cl`, the IC50 with H9c2 is 17.5 µM (active).

As for `CC(C)(C)[S@+]([O-])N1Cc2cc(C(=O)N[C@H]3CCN(Cc4ccccc4)C3)nc(-c3cccc(-c4ccncc4)c3)c2[C@@H]1CCO`, in test [8], the AC50 is 6.19 µM (active).

Consider `O=C(C[n+]1ccccc1)N/N=C/c1cccs1`, for which the results for the EC50 in test [1] and in [2] were > 38 µM (not active) and > 150 µM (inactive), respectively.

Regarding `CO[C@H]1CN(C)C(=O)c2cc(NC(=O)C3CC3)ccc2OC[C@H](C)N(Cc2cc(F)ccc2F)C[C@@H]1C`, the AC50 in test [8] was 6.44 µM (active).

In the case of `CO[C@@H]1CN(C)C(=O)c2ccc(NC(=O)Nc3ccc(C(F)(F)F)cc3)cc2OC[C@@H](C)NC[C@@H]1C`, the AC50 in [8] was 4.23 µM (active).

Regarding `C[C@H](CO)N1C[C@H](C)[C@@H](CN(C)C(=O)[C@H](C)c2ccccc2)OCc2ccccc2-c2c(n(C)c3ccccc23)C1=O`, the AC50 in test [8] was 4.07 µM (active).

Regarding `CN1c2ccc(C3=CCCCC3)cc2[C@H]2[C@H](CCN2C(=O)C2CC2)[C@@H]1CO`, in [8], the AC50 was 0.964 µM (active).
